This note sets out measurements from patent US20160083400A1, “TRICYCLIC GUANIDINE DERIVATIVE” (Sunovion Pharmaceuticals Inc., priority 2014, published 2016).

Holding throughout (assay type): biochemical
For one test, the target named is PDE1A (PDE 1A3) (Homo sapiens, UniProt P54750). In words: In vitro HTRF PDE1 inhibition assay (PDE1A). To be noted: PDE1A (1A3); 100 nM cyclic GMP, calmodulin, 45 minutes at 37° C. The source says: (§1) An exemplary procedure for the in vitro Homogenous Time Resolved Fluorescence (HTRF) assay, which can be used to determine the inhibitory action of compounds of the invention toward PDE1 or its isoforms, follows.
PDE1A (PDE 1A3), sequence (P54750 whole entry, canonical isoform): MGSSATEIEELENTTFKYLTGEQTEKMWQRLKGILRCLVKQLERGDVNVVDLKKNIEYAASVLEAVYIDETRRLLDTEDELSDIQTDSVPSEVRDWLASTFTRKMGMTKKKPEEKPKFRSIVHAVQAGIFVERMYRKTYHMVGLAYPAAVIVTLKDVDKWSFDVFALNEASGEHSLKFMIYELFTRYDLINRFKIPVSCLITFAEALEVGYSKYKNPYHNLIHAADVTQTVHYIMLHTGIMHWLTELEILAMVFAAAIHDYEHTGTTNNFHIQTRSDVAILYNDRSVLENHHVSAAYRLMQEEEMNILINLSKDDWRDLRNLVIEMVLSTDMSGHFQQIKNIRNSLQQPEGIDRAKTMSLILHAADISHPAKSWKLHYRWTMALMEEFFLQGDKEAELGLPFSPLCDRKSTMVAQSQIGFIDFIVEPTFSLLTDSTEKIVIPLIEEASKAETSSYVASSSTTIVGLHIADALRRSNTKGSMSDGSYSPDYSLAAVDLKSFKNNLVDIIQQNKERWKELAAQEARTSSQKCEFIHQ
(§2) The HTRF PDE1 assay utilized the HTRF technology, which is based on the competition between unlabeled cyclic nucleotide and cyclic nucleotide labeled with XL665 for the binding to cyclic nucleotide-specific antibody labeled with cryptate. The HTRF signal is thus inversely proportional to the concentration of cyclic nucleotide being measured. Since phosphodiesterases break down cyclic nucleotides the HTRF signal was used to determine PDE activity.
(§3) The Cisbio cGMP HTRF assay kit (Cat no: 62GM2PEC) was utilized. Cyclic GMP was diluted to 200 nM in HTRF assay buffer (1 mM CaCl2, 10 mM MgCl2, 10 mM Tris-HCl, 0.1% BSA, pH7.4). 10 μl of compound or DMSO was diluted in 200 nM cyclic GMP solution and added to wells of a 96 well white plate to give 100 nM cyclic GMP in 1% DMSO final concentration. PDE (1A3, 1B or 1C) was diluted to 2× working concentration in HTRF assay buffer with 4 μg/ml Calmodulin, and 10 μl was added to initiate the reaction. The plate was then incubated for 45 minutes at 37° C. d2-Labelled cyclic GMP and anti-cGMP cryptate were diluted in 50 mM phosphate buffer, 0.8M KF, 1% Triton X100, 0.2% BSA, pH7.0. Following incubation 10 μl d2-cGMP, then 10 μl anti cGMP cryptate were added to each well and the plate was incubated for 45 minutes at rt. The plate was then read on Perkin Elmer Victor at 2 different FRET readings ex/emm 340 nm/665 nm and 340 nm/615 nm.
(§4) Compounds having an IC50 of <1 μM, are denoted as +++. Compounds having an IC50 of 1-10 μM, are denoted as ++. Compounds having an IC50 of 10-100 μM, are denoted as +.

The target of the next test is PDE1C (Homo sapiens, UniProt Q14123). The test can be described thus: In vitro HTRF PDE1 inhibition assay (PDE1C).
PDE1C, sequence (Q14123 whole entry): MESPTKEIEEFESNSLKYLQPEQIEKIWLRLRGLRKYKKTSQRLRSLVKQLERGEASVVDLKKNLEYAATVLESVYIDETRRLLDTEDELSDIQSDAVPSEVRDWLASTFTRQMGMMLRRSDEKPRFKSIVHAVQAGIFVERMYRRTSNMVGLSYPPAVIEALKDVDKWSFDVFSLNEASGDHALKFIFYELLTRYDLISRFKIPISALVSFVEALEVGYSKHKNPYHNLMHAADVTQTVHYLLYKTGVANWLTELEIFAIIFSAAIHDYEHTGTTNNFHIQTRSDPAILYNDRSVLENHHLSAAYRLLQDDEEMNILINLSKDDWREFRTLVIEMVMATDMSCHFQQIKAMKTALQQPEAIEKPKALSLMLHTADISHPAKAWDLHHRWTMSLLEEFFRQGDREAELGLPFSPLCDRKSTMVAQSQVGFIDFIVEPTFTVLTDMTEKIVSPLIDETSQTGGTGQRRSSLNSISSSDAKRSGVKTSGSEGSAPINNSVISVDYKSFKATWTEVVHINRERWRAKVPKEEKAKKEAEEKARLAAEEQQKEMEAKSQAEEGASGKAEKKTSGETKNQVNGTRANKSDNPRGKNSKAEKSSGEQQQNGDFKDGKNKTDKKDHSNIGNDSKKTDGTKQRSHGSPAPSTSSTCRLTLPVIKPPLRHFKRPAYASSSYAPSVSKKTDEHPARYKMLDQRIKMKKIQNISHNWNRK
From the text: as §1, §2, §3, §4

For a further test, the target named is PDE1B (Homo sapiens, UniProt Q01064). The test can be described thus: In vitro HTRF PDE1 inhibition assay (PDE1B). The note with it: 100 nM cyclic GMP, calmodulin, 45 minutes at 37° C.
PDE1B, sequence (Q01064 whole entry): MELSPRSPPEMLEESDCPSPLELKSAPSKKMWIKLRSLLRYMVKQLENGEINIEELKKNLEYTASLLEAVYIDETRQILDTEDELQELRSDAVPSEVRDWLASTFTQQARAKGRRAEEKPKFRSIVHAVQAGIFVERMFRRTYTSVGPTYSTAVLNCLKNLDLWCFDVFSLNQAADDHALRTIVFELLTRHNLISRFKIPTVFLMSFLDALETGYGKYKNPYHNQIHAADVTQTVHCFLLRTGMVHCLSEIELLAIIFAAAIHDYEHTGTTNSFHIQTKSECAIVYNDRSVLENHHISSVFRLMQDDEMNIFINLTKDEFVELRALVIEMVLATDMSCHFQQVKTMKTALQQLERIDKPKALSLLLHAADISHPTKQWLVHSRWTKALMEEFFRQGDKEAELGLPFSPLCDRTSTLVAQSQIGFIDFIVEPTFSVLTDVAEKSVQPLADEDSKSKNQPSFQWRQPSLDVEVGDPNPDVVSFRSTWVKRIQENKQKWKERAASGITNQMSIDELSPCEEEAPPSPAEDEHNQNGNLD

SMILES strings stand for the structures. pIC50: −log10 of the molar value.

Experimental for PDE1B: The Cisbio cGMP HTRF assay kit (Cat no: 62GM2PEC) was utilized. Cyclic GMP was diluted to 200 nM in HTRF assay buffer (1 mM CaCl2, 10 mM MgCl2, 10 mM Tris-HCl, 0.1% BSA, pH7.4). […] PDE (1A3, 1B or 1C) was diluted to 2× working concentration in HTRF assay buffer with 4 μg/ml Calmodulin, and 10 μl was added to initiate the reaction. The plate was then incubated for 45 minutes at 37° C. d2-Labelled cyclic GMP and anti-cGMP cryptate were diluted in 50 mM phosphate buffer, 0.8M KF, 1% Triton X100, 0.2% BSA, pH7.0. Following incubation 10 μl d2-cGMP, then 10 μl anti cGMP cryptate were added to each well and the plate was incubated for 45 minutes at rt. The plate was then read on Perkin Elmer Victor at 2 different FRET readings ex/emm 340 nm/665 nm and 340 nm/615 nm.

On to `CC(C)c1ncnc2c(=O)n3c(nc12)NC(c1ccc(Cl)cc1)CC3` (stereo not drawn) [Example 176], for which the IC50 against PDE1A (PDE 1A3) and on PDE1B was under 1 µM throughout. On PDE1C, this compound showed a pIC50 of 5.00 to 6.00.

As to `O=c1c2cnc([C@@H]3CCOC3)n2nc2n1CC[C@H](c1ccc(Cl)cc1)N2` [Example 224], the IC50 on PDE1A (PDE 1A3) and against PDE1B was under 1 µM in each case. On PDE1C, this compound had a pIC50 of 5.00 to 6.00.

Take `O=c1c2cnc([C@H]3CCOC3)n2nc2n1CC[C@H](c1ccc(Cl)cc1)N2` [Example 225]: the IC50 against PDE1A (PDE 1A3) and at PDE1B was under 1 µM each time. The same compound gave a pIC50 against PDE1C of over 6.00.

With `CC[C@@H](C)c1ncc2c(=O)n3c(nn12)N[C@@H](c1ccc(Cl)cc1)CC3` [Example 226], the IC50 at PDE1A (PDE 1A3) and against PDE1B was under 1 µM each time. Further, the pIC50 against PDE1C was over 6.00.

As for `CC[C@H](C)c1ncc2c(=O)n3c(nn12)N[C@@H](c1ccc(Cl)cc1)CC3` [Example 227], the IC50 at PDE1A (PDE 1A3) and against PDE1B was under 1 µM in each case. The compound also showed a pIC50 against PDE1C of over 6.00.

For `O=c1c2cnc(C3(C(F)(F)F)CC3)n2nc2n1CC[C@H](c1ccc(Cl)cc1)N2` [Example 238], the half-maximal inhibitory concentration (IC50) at PDE1A (PDE 1A3) and on PDE1B was under 1 µM each time. This compound gave a pIC50 on PDE1C of 5.00 to 6.00.

Turning to `COC1(c2ncc3c(=O)n4c(nn23)N[C@@H](c2ccc(Cl)cc2)CC4)CC1` [Example 239], the IC50 on PDE1A (PDE 1A3) and at PDE1B was under 1 µM throughout. The pIC50 against PDE1C is 5.00 to 6.00.

Regarding `CC(C)(O)c1ncc2c(=O)n3c(nn12)N[C@@H](c1ccc(Cl)cc1)CC3` [Example 242], the IC50 against PDE1A (PDE 1A3) and on PDE1B was under 1 µM throughout. Besides, the pIC50 at PDE1C is 5.00 to 6.00.

Consider `CO[C@@H](C)c1ncc2c(=O)n3c(nn12)N[C@@H](c1ccc(Cl)cc1)CC3` [Example 259], for which the IC50 on PDE1A (PDE 1A3) and against PDE1B was under 1 µM in each case. Moreover, on PDE1C, the pIC50 was over 6.00.

With `CO[C@H](C)c1ncc2c(=O)n3c(nn12)N[C@@H](c1ccc(Cl)cc1)CC3` [Example 260], the IC50 on PDE1A (PDE 1A3) and at PDE1B was under 1 µM throughout. For the same compound, at PDE1C, the pIC50 was 5.00 to 6.00.

In the case of `O=c1c2ncnc(C3CCOCC3)c2nc2n1CCC(c1ccc(Cl)cc1)N2` (stereo not drawn) [Example 265, 7-(4-Chlorophenyl)-4-(tetrahydro-2H-pyran-4-yl)-5,7,8,9-tetrahydro-11H-dipyrimido[1,2-a:5′,4′-d]pyrimidin-11-one], the IC50 against PDE1A (PDE 1A3) and on PDE1B was under 1 µM throughout. At PDE1C, this compound gave a pIC50 of 5.00 to 6.00.
